This note sets out measurements from patent publication US20230147257A1 (DONG-A ST CO., LTD., priority 2020, published 2023).

In assay [1] the target is T1, AhR (Homo sapiens, UniProt P35869).
T1 construct: host or cells: HepG2
T1 sequence (P35869 11-848): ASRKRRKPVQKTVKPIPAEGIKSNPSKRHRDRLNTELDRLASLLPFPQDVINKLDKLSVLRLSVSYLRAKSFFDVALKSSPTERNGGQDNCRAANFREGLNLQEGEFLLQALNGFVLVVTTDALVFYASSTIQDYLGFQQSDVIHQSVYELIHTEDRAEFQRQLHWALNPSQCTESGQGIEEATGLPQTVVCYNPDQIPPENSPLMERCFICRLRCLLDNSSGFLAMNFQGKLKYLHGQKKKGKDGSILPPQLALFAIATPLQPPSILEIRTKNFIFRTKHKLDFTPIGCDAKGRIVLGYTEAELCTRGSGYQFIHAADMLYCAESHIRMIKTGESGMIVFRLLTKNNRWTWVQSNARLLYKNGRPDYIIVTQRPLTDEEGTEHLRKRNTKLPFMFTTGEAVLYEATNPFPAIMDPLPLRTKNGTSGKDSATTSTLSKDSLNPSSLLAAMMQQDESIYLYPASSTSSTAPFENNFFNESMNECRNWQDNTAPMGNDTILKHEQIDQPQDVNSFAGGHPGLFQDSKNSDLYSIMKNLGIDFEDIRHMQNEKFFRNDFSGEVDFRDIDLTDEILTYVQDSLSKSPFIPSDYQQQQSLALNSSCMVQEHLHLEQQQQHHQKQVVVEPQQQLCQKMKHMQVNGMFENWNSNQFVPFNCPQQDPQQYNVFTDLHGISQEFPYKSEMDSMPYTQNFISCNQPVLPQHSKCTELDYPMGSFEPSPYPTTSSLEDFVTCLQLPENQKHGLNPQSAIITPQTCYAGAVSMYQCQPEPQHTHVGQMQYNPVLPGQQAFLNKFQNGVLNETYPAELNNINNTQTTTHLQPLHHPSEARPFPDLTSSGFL
Briefly: In vitro assay 1: XRE-luciferase reporter assay, antagonism in human cell line (HepG2). The assay is classed as cell-based. Conditions: HepG2 XRE-luciferase, cells treated with kynurenine 200 μM (no *), 6 hours; read-out: Assay 1: AhR-Luc Human Antagonism (IC50). The method, boiled down: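 HepG2 cells carrying XRE-firefly luciferase (transient or stable) plus constitutive Nano-Luc control, stimulated 6 h with kynurenine (50 or 200 μM) with or without compound. Firefly/Nano-Luc ratio normalized to kynurenine-alone (maximum) and vehicle (minimum); IC50 by four-parameter nonlinear regression.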
On the technique in general: In a reporter assay the amount or activity of a reporter protein is the signal.

The target of assay [2] is T2, AhR (Mus musculus, UniProt P30561).
T2 sequence (P30561 1-848): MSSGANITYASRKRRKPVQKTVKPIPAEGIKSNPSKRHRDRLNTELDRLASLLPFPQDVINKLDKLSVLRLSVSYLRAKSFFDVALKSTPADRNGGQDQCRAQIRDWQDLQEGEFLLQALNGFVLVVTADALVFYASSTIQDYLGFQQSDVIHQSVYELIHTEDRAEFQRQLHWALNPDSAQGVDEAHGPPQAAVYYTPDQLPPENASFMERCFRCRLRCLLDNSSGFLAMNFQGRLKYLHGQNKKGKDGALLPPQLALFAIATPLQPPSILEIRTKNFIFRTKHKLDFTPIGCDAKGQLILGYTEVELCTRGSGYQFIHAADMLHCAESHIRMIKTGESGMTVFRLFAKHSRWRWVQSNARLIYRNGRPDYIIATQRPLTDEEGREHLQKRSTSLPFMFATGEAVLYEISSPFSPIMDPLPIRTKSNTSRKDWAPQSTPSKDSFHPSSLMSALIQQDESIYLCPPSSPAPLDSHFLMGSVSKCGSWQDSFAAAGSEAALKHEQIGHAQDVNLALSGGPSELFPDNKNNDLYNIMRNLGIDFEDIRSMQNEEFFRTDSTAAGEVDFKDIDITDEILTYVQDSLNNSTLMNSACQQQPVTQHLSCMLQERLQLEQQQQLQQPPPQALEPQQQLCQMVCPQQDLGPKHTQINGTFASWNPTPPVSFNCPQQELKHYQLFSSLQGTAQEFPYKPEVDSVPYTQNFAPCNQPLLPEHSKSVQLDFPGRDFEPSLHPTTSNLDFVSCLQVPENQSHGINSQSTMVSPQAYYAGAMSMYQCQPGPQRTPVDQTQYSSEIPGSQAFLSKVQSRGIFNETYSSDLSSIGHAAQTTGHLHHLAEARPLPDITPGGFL
The experiment in a line: In vitro assay 2: XRE-luciferase reporter assay, antagonism in mouse cell line (Hepa1c1c7). Conditions: Hepa1c1c7 XRE-Luc, cells treated with kynurenine (#), 6 hours. The assay is classed as cell-based. From the text: In Vitro XRE-Luciferase Reporter Assay (In Vitro Assay 1, 2, 3)
AhR activation leads the induction of target gene expression such as CYP1A1 and CYP1B1 by AhR binding to AhR-responsive DNA elements also known as xenobiotics responsive elements (XRE). The assay for measuring AhR activity herein is the luciferase assay using cell lines transfected with luciferase reporter plasmid containing XREs at the upstream of the reporter gene. Cells transfected with XRE-luciferase reporter (XRE-Luc) plasmid drive luciferase activity reflecting activation and inhibition of AhR in the cells. In addition to transfection with XRE-reporter vector, cells were co-transfected with Nano-luciferase reporter gene construct (Nano-Luc) containing constitutively active promoter as internal control. Kynurenine (an endogenous AhR agonist) was used to stimulate cells to test antagonistic properties of the compounds. The half-maximal inhibitory concentration (IC50) or half-maximal effective concentration (EC50) value was calculated using nonlinear regression (four parameters) with Prism8.0 software (GraphPad).
In Vitro Assay 2: Antagonism in Mouse Cell Line
Hepa1c1c7 (murine liver cancer cell line) cells co-transfected with XRE-Luc and Nano-Luc plasmids were plated in complete medium and incubated overnight at 37° C. in a CO2 incubator. Following incubation, cells were treated with AhR activating ligands such as kynurenic acid, kynurenine(#) with or without test compounds for 6 hours. Firefly luciferase and Nano-luciferase activity was measured using Nano-glo Luciferase kit (Promega) and relative luciferase activity (Firefly/Nano-Luc) was used to calculate IC50 values. The relative luciferase activity was further normalized with agonists alone group as the maximum control and the vehicle group as the minimum control. (IC50 Values are grouped as A, B, C and D, whereby A: IC50<0.01 μM; B: 0.01<IC50<0.1 μM; C: 0.1<IC50<1.0 μM; D: IC50>1.0 μM)

Regarding `CC(CO)n1cnc2c(-c3cccnc3)nc(-c3ccc(Cl)cc3)cc2c1=O` (centres unmarked) [Example 46, 6-(4-chlorophenyl)-3-(1-hydroxypropan-2-yl)-8-(pyridin-3-yl)pyrido[3,4-d]pyrimidin-4(3H)-one], the IC50 in assay [1] and in assay [2] was < 10 nM throughout.

What is called IC50 is the concentration needed to halve the response being measured.
